Measurements from US20260263452A1, “ONCOLOGY COMBINATION THERAPY AND METHODS OF USE” (BeyondSpring Pharmaceuticals, Inc., priority 2023, published 2026).

Test system: MDA-MB-231 human breast cancer
Assay: MDA-MB-231 human breast cancer SubQ xenograft model in BALB/c nude mice
Assay type: in vivo
Conditions: Day 38, abemaciclib 50 mg/kg PO QD, plinabulin 7.5 mg/kg IP BIW; for mean tumor volume: n=8 per group, vehicle control 1235±24 mm^3
Description: The anti-tumor activity of plinabulin as a single agent compared to co-administration with abemaciclib was evaluated in an MDA-MB-231 human breast cancer SubQ xenograft model in BALB/c nude mice. Plinabulin was provided as a 4 mg/mL solution in 40% Solutol, 60% Propylene Glycol. […] Abemaciclib was provided as a crystalline solid. Prior to dosing, an appropriate amount of abemaciclib solid was weighed out and dissolved in 1% hydroxyethyl cellulose in 25 mM phosphate buffer, pH=2, to a concentration of 5 mg/mL to deliver a dose of 50 mg/kg in a 10 mL/kg dosing volume. […] The vehicle control was dosed intraperitoneally at a 10 mL/kg dose volume. The MDA-MB-231 human breast tumor cell line was maintained in L-15 medium supplemented with 10% FBS at 37° C. in an atmosphere of 100% air. Cells were sub-cultured upon reaching about 90% confluence by trypsin-EDTA treatment. Cells in an exponential growth phase were harvested using a trypsin-EDTA mixture. Female BALB/c nude mice were received at 6-8 weeks of age. All mice were acclimated for 7 days prior to study initiation. The mice were housed in housed in polycarbonate cages and maintained under specific pathogen-free conditions. The mice were fed irradiated dry granule food and sterile drinking water was freely available. Mice were inoculated subcutaneously on the right flank with 0.1 mL of L-15 medium/Martigel (1:1) mixture containing a suspension of 1×10^7 cells/mouse of live MDA-MB-231 tumor cells. […] Twenty-eight days following inoculation, thirty-two mice with tumor sizes of 101-124 mm^3 were randomized into four groups of eight mice, each with a mean tumor size of 114 mm^3. Tumor volumes and body weights were recorded when the mice were randomized and were taken twice weekly thereafter. Clinical observations were made daily. Dosing was performed via intraperitoneal injection for vehicle control and plinabulin and administered via oral gavage for abemaciclib as described below in Table 1. Plinabulin was administered one hour post dose of abemaciclib on combined dosing days. [table] […] All mice are included in the TGI calculations. [formula] All statistical analyses in the xenograft study are performed with GraphPad Prism software. p≤0.05 was considered statistically significant. […] A two-tailed Student's t-test with Welch's correction was also used to verify any differences between each group and the vehicle control, as well as single agents and their respective combination groups.

Row | SMILES | TGI (tumor growth inhibition) compared to the Vehicle Control group | mean tumor volume
1 | CCN1CCN(Cc2ccc(Nc3ncc(F)c(-c4cc(F)c5nc(C)n(C(C)C)c5c4)n3)nc2)CC1 [abemaciclib] | 59% | 572±101 mm^3
2 | CC(C)(C)c1[nH]cnc1/C=c1\[nH]c(=O)/c(=C/c2ccccc2)[nH]c1=O [plinabulin, (3Z,6Z)-3-benzylidene-6-{[5-(2-methyl-2-propanyl)-1H-imidazol-4-yl]methylene}-2,5-piperazinedione] | 26% | 942±114 mm^3
